Data reported in publication PMC5218480 (PLoS ONE, 2017).

Tested on: MV-4-11 cells
Assay: Gene expression microarray analysis (Affymetrix PrimeView) and GSEA
Format: cell-based, human
Parameters: RFU PODN (11730768_x_at) / Fold change /veh PODN (11730768_x_at) / RFU LINC00158 (11744669_a_at) / Fold change /veh LINC00158 (11744669_a_at) / RFU DUSP10 (11751237_a_at) / Fold change /veh DUSP10 (11751237_a_at) / RFU ID3 (11757404_x_at) / Fold change /veh ID3 (11757404_x_at) / RFU PLEKHG5 (11737974_s_at) / Fold change /veh PLEKHG5 (11737974_s_at) / RFU LRRC4B (11730491_at) / Fold change /veh LRRC4B (11730491_at) / RFU GIMAP4 (11747438_a_at) / Fold change /veh GIMAP4 (11747438_a_at) / RFU KRT8 (11758183_x_at) / Fold change /veh KRT8 (11758183_x_at) / RFU CNN1 (11734310_a_at) / Fold change /veh CNN1 (11734310_a_at) / RFU VPS37D (11726825_at) / Fold change /veh VPS37D (11726825_at) / RFU C10orf10 (11716522_x_at) / Fold change /veh C10orf10 (11716522_x_at) / RFU KIR2DL2 /// KIR2DL4 /// KIR2DL5A /// KIR2DL5B /// KIR2DS1 /// KIR2DS2 /// KIR2DS3 /// KIR2DS4 /// KIR3DL3 /// KIR3DL3 /// KIR3DS1 (11738374_at) / Fold change /veh KIR2DL2 /// KIR2DL4 /// KIR2DL5A /// KIR2DL5B /// KIR2DS1 /// KIR2DS2 /// KIR2DS3 /// KIR2DS4 /// KIR3DL3 /// KIR3DL3 /// KIR3DS1 (11738374_at) / RFU C1QL1 (11718748_at) / Fold change /veh C1QL1 (11718748_at) / RFU TMPRSS4 (11747572_a_at) / Fold change /veh TMPRSS4 (11747572_a_at) / RFU HAMP (11756126_x_at) / Fold change /veh HAMP (11756126_x_at) / RFU RNFT2 (11725882_a_at) / Fold change /veh RNFT2 (11725882_a_at) / RFU NR4A2 (11747474_a_at) / Fold change /veh NR4A2 (11747474_a_at) / RFU ABCC12 (11746883_a_at) / Fold change /veh ABCC12 (11746883_a_at) / RFU TMEM136 (11760407_x_at) / Fold change /veh TMEM136 (11760407_x_at) / RFU CLDN22 /// WWC2 (11732394_at) / Fold change /veh CLDN22 /// WWC2 (11732394_at) / RFU HLA-DPB1 (11760878_x_at) / Fold change /veh HLA-DPB1 (11760878_x_at) / RFU SPINT1 (11716480_a_at) / Fold change /veh SPINT1 (11716480_a_at) / RFU GAP43 (11754022_s_at) / Fold change /veh GAP43 (11754022_s_at) / RFU A4GNT (11735810_at) / Fold change /veh A4GNT (11735810_at) / RFU PRB3 (11715151_x_at) / Fold change /veh PRB3 (11715151_x_at) / RFU TUBB4B (11761932_at) / Fold change /veh TUBB4B (11761932_at) / RFU CAPN14 (11732068_a_at) / Fold change /veh CAPN14 (11732068_a_at) / RFU TMCC2 (11721928_a_at) / Fold change /veh TMCC2 (11721928_a_at) / RFU IRGQ (11745062_a_at) / Fold change /veh IRGQ (11745062_a_at) / RFU FAM174B (11720279_a_at) / Fold change /veh FAM174B (11720279_a_at) / RFU TMPRSS4 (11748680_a_at) / Fold change /veh TMPRSS4 (11748680_a_at) / RFU FAM212B (11763350_a_at) / Fold change /veh FAM212B (11763350_a_at) / RFU PLEKHG5 (11743358_a_at) / Fold change /veh PLEKHG5 (11743358_a_at) / RFU ZSCAN30 (11745921_a_at) / Fold change /veh ZSCAN30 (11745921_a_at) / RFU CMKLR1 (11741424_a_at) / Fold change /veh CMKLR1 (11741424_a_at) / RFU LOC101060620 /// MAPK8IP1 (11723275_at) / Fold change /veh LOC101060620 /// MAPK8IP1 (11723275_at) / RFU SPTSSB (11747773_x_at) / Fold change /veh SPTSSB (11747773_x_at) / RFU PRSS12 (11739890_at) / Fold change /veh PRSS12 (11739890_at) / RFU BIN1 (11741810_x_at) / Fold change /veh BIN1 (11741810_x_at) / RFU WNT11 (11732464_a_at) / Fold change /veh WNT11 (11732464_a_at) / RFU C10orf10 (11716521_a_at) / Fold change /veh C10orf10 (11716521_a_at) / RFU C5orf56 (11738089_at) / Fold change /veh C5orf56 (11738089_at) / RFU CYB561 (11721691_x_at) / Fold change /veh CYB561 (11721691_x_at) / RFU ANKRD19P (11752326_a_at) / Fold change /veh ANKRD19P (11752326_a_at) / RFU OR2T12 /// OR2T33 /// OR2T8 (11738714_s_at) / Fold change /veh OR2T12 /// OR2T33 /// OR2T8 (11738714_s_at) / RFU VCAN (11748164_a_at) / Fold change /veh VCAN (11748164_a_at) / RFU JSRP1 (11732532_at) / Fold change /veh JSRP1 (11732532_at) / RFU KRTAP10-11 (11738290_x_at) / Fold change /veh KRTAP10-11 (11738290_x_at) / RFU MYO3A (11730013_a_at) / Fold change /veh MYO3A (11730013_a_at) / RFU EBF3 (11725865_a_at) / Fold change /veh EBF3 (11725865_a_at) / RFU CAMK2N1 (11719241_x_at) / Fold change /veh CAMK2N1 (11719241_x_at) / RFU C5orf56 (11738088_a_at) / Fold change /veh C5orf56 (11738088_a_at) / RFU OLFML3 (11715873_a_at) / Fold change /veh OLFML3 (11715873_a_at) / RFU LOC100653217 /// NTM (11731650_a_at) / Fold change /veh LOC100653217 /// NTM (11731650_a_at) / RFU MAPK11 (11762145_a_at) / Fold change /veh MAPK11 (11762145_a_at) / RFU FIZ1 (11724087_x_at) / Fold change /veh FIZ1 (11724087_x_at) / RFU OASL (11726364_x_at) / Fold change /veh OASL (11726364_x_at) / RFU SOX15 (11748057_x_at) / Fold change /veh SOX15 (11748057_x_at) / RFU CD79A (11719716_a_at) / Fold change /veh CD79A (11719716_a_at) / RFU HIST1H1D (11736915_at) / Fold change /veh HIST1H1D (11736915_at) / RFU CASKIN2 (11723855_a_at) / Fold change /veh CASKIN2 (11723855_a_at) / RFU LOC730098 (11760151_x_at) / Fold change /veh LOC730098 (11760151_x_at) / RFU OR4N2 (11742367_at) / Fold change /veh OR4N2 (11742367_at) / RFU PRRT2 (11749266_a_at) / Fold change /veh PRRT2 (11749266_a_at) / RFU SNX32 (11753110_a_at) / Fold change /veh SNX32 (11753110_a_at) / RFU CDHR5 (11726645_a_at) / Fold change /veh CDHR5 (11726645_a_at) / RFU RCAN1 (11760418_a_at) / Fold change /veh RCAN1 (11760418_a_at) / RFU FAM167A (11723789_a_at) / Fold change /veh FAM167A (11723789_a_at) / RFU FAM26E (11764081_at) / Fold change /veh FAM26E (11764081_at) / RFU ISYNA1 (11749810_s_at) / Fold change /veh ISYNA1 (11749810_s_at) / RFU ACY1 (11761880_at) / Fold change /veh ACY1 (11761880_at) / RFU 11764098_at / Fold change /veh 11764098_at / RFU SAMD14 (11745864_x_at) / Fold change /veh SAMD14 (11745864_x_at) / RFU NPB (11741838_a_at) / Fold change /veh NPB (11741838_a_at) / RFU TMPRSS6 (11731388_a_at) / Fold change /veh TMPRSS6 (11731388_a_at) / RFU KRTAP10-2 (11738614_at) / Fold change /veh KRTAP10-2 (11738614_at) / RFU ARHGAP8 /// PRR5-ARHGAP8 (11727945_x_at) / Fold change /veh ARHGAP8 /// PRR5-ARHGAP8 (11727945_x_at) / RFU KRTAP5-7 /// NADSYN1 (11734609_at) / Fold change /veh KRTAP5-7 /// NADSYN1 (11734609_at) / RFU RASL12 (11751679_a_at) / Fold change /veh RASL12 (11751679_a_at) / RFU CDKN2B (11736163_a_at) / Fold change /veh CDKN2B (11736163_a_at) / RFU PRF1 (11729649_at) / Fold change /veh PRF1 (11729649_at) / RFU, ZNF638 /// ZNF638-IT1 / Fold change vs veh, ZNF638 /// ZNF638-IT1 / RFU, PANK3 / Fold change vs veh, PANK3 / RFU, SH3YL1 / Fold change vs veh, SH3YL1 / RFU, ZEB2 / Fold change vs veh, ZEB2 / RFU, NRIP1 / Fold change vs veh, NRIP1 / RFU, PTTG1IP / Fold change vs veh, PTTG1IP / RFU, CAPN2 / Fold change vs veh, CAPN2 / RFU, MED14 / Fold change vs veh, MED14 / RFU, SNORA58 / Fold change vs veh, SNORA58 / RFU, C1orf63 / Fold change vs veh, C1orf63 / RFU, LRRFIP1 / Fold change vs veh, LRRFIP1 / RFU, NDUFAF7 / Fold change vs veh, NDUFAF7 / RFU, SLC12A2 / Fold change vs veh, SLC12A2 / RFU, IBTK / Fold change vs veh, IBTK / RFU, ESF1 / Fold change vs veh, ESF1 / Fold change vs veh, TMEM50B / RFU, TAOK1 / Fold change vs veh, TAOK1 / RFU, ACBD3 / Fold change vs veh, ACBD3 / RFU, TMA16 / Fold change vs veh, TMA16 / RFU, RWDD3 / Fold change vs veh, RWDD3 / RFU, BCAT1 / Fold change vs veh, BCAT1 / RFU, EDEM3 / Fold change vs veh, EDEM3 / RFU, TMEM33 / Fold change vs veh, TMEM33 / RFU, WDR75 / Fold change vs veh, WDR75 / RFU, AHCTF1 / Fold change vs veh, AHCTF1 / RFU, TFRC / Fold change vs veh, TFRC / RFU, ZDHHC17 / Fold change vs veh, ZDHHC17 / RFU, NOM1 / Fold change vs veh, NOM1 / RFU, ARL8B / Fold change vs veh, ARL8B / RFU, ZBTB11 / Fold change vs veh, ZBTB11 / RFU, TAMM41 / Fold change vs veh, TAMM41 / RFU, KIAA1704 /// LOC100996395 / Fold change vs veh, KIAA1704 /// LOC100996395 / RFU, ING1 / Fold change vs veh, ING1 / RFU, TRMT61B / Fold change vs veh, TRMT61B / RFU, FUBP3 / Fold change vs veh, FUBP3 / RFU, TP53 / Fold change vs veh, TP53 / RFU, TNKS2 / Fold change vs veh, TNKS2 / RFU, ZFP14 / Fold change vs veh, ZFP14 / RFU, ACTR2 / Fold change vs veh, ACTR2 / RFU, PPP3R1 / Fold change vs veh, PPP3R1 / RFU, PIK3R1 / Fold change vs veh, PIK3R1 / RFU, HNRNPA1 / Fold change vs veh, HNRNPA1 / RFU, RNF170 / Fold change vs veh, RNF170 / RFU, ZNF28 / Fold change vs veh, ZNF28 / RFU, RNGTT / Fold change vs veh, RNGTT / RFU, OGT / Fold change vs veh, OGT / RFU, BRD1 / Fold change vs veh, BRD1 / RFU, MARS / Fold change vs veh, MARS / RFU, ZNF655 / Fold change vs veh, ZNF655 / RFU, FAHD1 / Fold change vs veh, FAHD1 / RFU, BDP1 / Fold change vs veh, BDP1 / RFU, LRRCC1 / Fold change vs veh, LRRCC1 / RFU, ARID1A / Fold change vs veh, ARID1A / RFU, ZNF146 / Fold change vs veh, ZNF146 / RFU, ZNF330 / Fold change vs veh, ZNF330 / RFU, GPN3 / Fold change vs veh, GPN3 / RFU, C9orf123 / Fold change vs veh, C9orf123 / RFU, N4BP2L2 / Fold change vs veh, N4BP2L2 / RFU, ARFIP1 / Fold change vs veh, ARFIP1 / RFU, FAM179B / Fold change vs veh, FAM179B / RFU, BCL10 / Fold change vs veh, BCL10 / RFU, UHRF1BP1L / Fold change vs veh, UHRF1BP1L / RFU, BET1 / Fold change vs veh, BET1 / RFU, CNOT2 / Fold change vs veh, CNOT2 / RFU, ZNF268 / Fold change vs veh, ZNF268 / Fold change vs veh, ZNF507 / RFU, DGCR2 / Fold change vs veh, DGCR2 / RFU, WDSUB1 / Fold change vs veh, WDSUB1 / Fold change vs veh, HSP90B1 /// MIR3652 / RFU, ADSS / Fold change vs veh, ADSS / RFU, GK / Fold change vs veh, GK / RFU, ZNF148 / Fold change vs veh, ZNF148 / RFU, TAF9 / Fold change vs veh, TAF9 / RFU, SLC1A5 / Fold change vs veh, SLC1A5 / RFU, SLMO2 / Fold change vs veh, SLMO2 / RFU, ABCC4 / Fold change vs veh, ABCC4 / RFU, LOC101060439 /// RAP1B / Fold change vs veh, LOC101060439 /// RAP1B / RFU, RFX7 / Fold change vs veh, RFX7 / RFU, GTPBP10 / Fold change vs veh, GTPBP10 / RFU, CNEP1R1 / Fold change vs veh, CNEP1R1 / RFU, BIVM-ERCC5 /// ERCC5 / Fold change vs veh, BIVM-ERCC5 /// ERCC5 / RFU, ILF3 / Fold change vs veh, ILF3 / RFU 11762660_at / Fold change /veh 11762660_at / RFU VCAN (11757783_s_at) / Fold change /veh VCAN (11757783_s_at) / RFU DDX43 (11728927_at) / Fold change /veh DDX43 (11728927_at) / RFU KRT8 (11758188_x_at) / Fold change /veh KRT8 (11758188_x_at) / RFU NKD1 (11759106_at) / Fold change /veh NKD1 (11759106_at) / RFU SRD5A1 (11742802_a_at) / Fold change /veh SRD5A1 (11742802_a_at) / RFU TPSAB1 /// TPSB2 (11721975_s_at) / Fold change /veh TPSAB1 /// TPSB2 (11721975_s_at) / RFU GSTM3 (11746129_a_at) / Fold change /veh GSTM3 (11746129_a_at) / RFU IL23R (11737362_x_at) / Fold change /veh IL23R (11737362_x_at) / RFU TMEM51 (11727254_a_at) / Fold change /veh TMEM51 (11727254_a_at) / RFU PIWIL2 (11732686_x_at) / Fold change /veh PIWIL2 (11732686_x_at) / RFU ORM1 (11744905_x_at) / Fold change /veh ORM1 (11744905_x_at) / RFU CCDC152 (11743942_at) / Fold change /veh CCDC152 (11743942_at) / RFU ECM1 (11717891_a_at) / Fold change /veh ECM1 (11717891_a_at) / RFU IL23R (11748794_a_at) / Fold change /veh IL23R (11748794_a_at) / RFU TNFAIP8L3 (11732012_x_at) / Fold change /veh TNFAIP8L3 (11732012_x_at) / RFU MBOAT4 (11741988_at) / Fold change /veh MBOAT4 (11741988_at) / RFU 11764193_at / Fold change /veh 11764193_at / RFU TMEM53 (11763286_at) / Fold change /veh TMEM53 (11763286_at) / RFU MAGEB2 (11727129_at) / Fold change /veh MAGEB2 (11727129_at) / RFU TMEM200A (11744735_a_at) / Fold change /veh TMEM200A (11744735_a_at) / RFU CCDC152 (11751479_a_at) / Fold change /veh CCDC152 (11751479_a_at) / RFU FAM211A (11726209_a_at) / Fold change /veh FAM211A (11726209_a_at) / RFU RGS16 (11746705_a_at) / Fold change /veh RGS16 (11746705_a_at) / RFU VCAN (11755009_s_at) / Fold change /veh VCAN (11755009_s_at) / RFU RHOB (11743442_s_at) / Fold change /veh RHOB (11743442_s_at) / RFU RGS16 (11720943_a_at) / Fold change /veh RGS16 (11720943_a_at) / RFU RGS16 (11720944_at) / Fold change /veh RGS16 (11720944_at) / RFU, VPS4B / Fold change vs veh, VPS4B / RFU, CREB1 / Fold change vs veh, CREB1 / RFU, DNAJC13 / Fold change vs veh, DNAJC13 / RFU, GNAQ / Fold change vs veh, GNAQ / RFU, CDK5R1 / Fold change vs veh, CDK5R1 / RFU, ZRANB3 / Fold change vs veh, ZRANB3 / RFU, CUL4A / Fold change vs veh, CUL4A / RFU, CCNY / Fold change vs veh, CCNY / RFU, UFL1 / Fold change vs veh, UFL1 / RFU, COG3 / Fold change vs veh, COG3 / RFU, DIAPH2 / Fold change vs veh, DIAPH2 / RFU, SKA2 / Fold change vs veh, SKA2 / RFU, AFF3 / Fold change vs veh, AFF3 / RFU, LMF1 / Fold change vs veh, LMF1 / RFU, IPO11 / Fold change vs veh, IPO11 / RFU, DFFB / Fold change vs veh, DFFB / RFU, FOXP1 / Fold change vs veh, FOXP1 / RFU, CARD8 / Fold change vs veh, CARD8 / RFU, STRN3 / Fold change vs veh, STRN3 / RFU, ADK / Fold change vs veh, ADK / RFU, RASSF2 / Fold change vs veh, RASSF2 / RFU, WIPF1 / Fold change vs veh, WIPF1 / RFU, LARP1B / Fold change vs veh, LARP1B / RFU, RASA1 / Fold change vs veh, RASA1 / RFU, RB1 / Fold change vs veh, RB1 / RFU, PPFIA1 / Fold change vs veh, PPFIA1 / RFU, MAT2A / Fold change vs veh, MAT2A / RFU, CCT5 / Fold change vs veh, CCT5 / RFU, WDR92 / Fold change vs veh, WDR92 / RFU, CUX1 / Fold change vs veh, CUX1 / RFU, TTC7A / Fold change vs veh, TTC7A / RFU, TMEM135 / Fold change vs veh, TMEM135 / RFU, DEPTOR / Fold change vs veh, DEPTOR / RFU, CPM / Fold change vs veh, CPM / RFU, DNAJB6 / Fold change vs veh, DNAJB6 / RFU, CACNA2D3 / Fold change vs veh, CACNA2D3 / RFU, DTX4 / Fold change vs veh, DTX4 / RFU, TFCP2 / Fold change vs veh, TFCP2 / RFU, GMCL1 /// GMCL1P1 / Fold change vs veh, GMCL1 /// GMCL1P1 / RFU, AEBP2 / Fold change vs veh, AEBP2 / RFU, SNHG1 /// SNORD22 /// SNORD25 /// SNORD26 /// SNORD27 /// SNORD28 /// SNORD29 /// SNORD31 / Fold change vs veh, SNHG1 /// SNORD22 /// SNORD25 /// SNORD26 /// SNORD27 /// SNORD28 /// SNORD29 /// SNORD31 / Fold change (Aza/veh), C12orf56 (ProbeSet 11735607_a_at) / Fold change (ACY-1035/veh), C12orf56 (ProbeSet 11735607_a_at) / Fold change (Aza/veh), FGFR1OP (ProbeSet 11751329_s_at) / Fold change (ACY-1035/veh), FGFR1OP (ProbeSet 11751329_s_at) / Fold change (Aza/veh), VPS36 (ProbeSet 11739960_a_at) / Fold change (ACY-1035/veh), VPS36 (ProbeSet 11739960_a_at) / RFU SYPL1 (11715823_x_at) / Fold change /veh SYPL1 (11715823_x_at) / RFU IGFBP7 (11715501_s_at) / Fold change /veh IGFBP7 (11715501_s_at) / RFU REEP3 (11722064_at) / Fold change /veh REEP3 (11722064_at) / RFU IGLL1 (11728026_x_at) / Fold change /veh IGLL1 (11728026_x_at): dose or concentration left out as unconfirmed
Conditions: MV-4-11 cells, 48 hours

## Nc1ncn([C@@H]2O[C@H](CO)[C@@H](O)[C@H]2O)c(=O)n1 [azacitidine]
  Fold change /veh FIZ1 (11724087_x_at): 1.09
